Experimental data published in paper PMC10641236, “Influenza A virus replication has a stronger dependency on Raf/MEK/ERK signaling pathway activity than SARS-CoV-2” (Frontiers in Cellular and Infection Microbiology, 2023).
pEC50: −log10 of the molar value. Where two headings read alike, the source gives them in different places.

Assays:
Caco-2 cells = format: cell-based; conditions: human, 24 h
Procedure: (§1) Per well, 2.5 × 10^4 Caco-2 cells or 4 × 10^4 Calu-3 cells were seeded in 96-well plates (Greiner Bio-One, Kremsmünster, Austria) and incubated for 24 h at 37°C, 5% CO2. Cell viability was assessed using a WST-1 assay according to the manufacturer’s recommendations (Roche, Basel, Switzerland). For reference, cell viability was assessed at 0 h and after 24 h of treatment with different concentrations of zapnometinib in medium containing 1% DMSO. The measured cell viability was normalized to the 0-h control. The CC50 value was determined using the “Sigmoidal, 4PL, X is log(concentration)” equation in GraphPad Prism.

Calu-3 cells = format: cell-based; conditions: human, 24 h
Procedure: as §1

[1] = tested on: SARS-CoV-2 B.1 isolate “FI”; design: method as in Schreiber et al., 2022; conditions: ref Schreiber et al., 2022, read-out: EC50 value against SARS-CoV-2; cited from earlier work
IAV RB1 = tested on: IAV RB1; design: method as in Laure et al., 2020; conditions: IAV RB1, medium containing 0.2% BSA; ref Laure et al., 2020; cited from earlier work
IBV Lee = tested on: IBV Lee; design: method as in Laure et al., 2020; conditions: medium containing 0.2% BSA, ref Laure et al., 2020; cited from earlier work
SARS-CoV-2 = experiment: Virus yield reduction assay, SARS-CoV-2 (virus titer by RT-qPCR); format: cell-based; conditions: for reduction of virus titer compared to solvent control: 5% FBS; for reduction of virus titer compared to solvent control / reduction of the virus titer: 24 h; for reduction of the virus titer: Calu-3 and Caco-2 cells
Procedure: (§2) Calu-3 and Caco-2 cells were seeded in 24-well plates (Greiner Bio-One GmbH, Frickenhausen, Germany) and grown to 90% confluence. The cells were washed once with infection medium [IMDM supplemented with 0.2% bovine serum albumin (BSA) (Carl Roth GmbH + Co. KG, Karlsruhe, Germany) and 1% penicillin–streptomycin] prior to infection with a multiplicity of infection (MOI) of 0.01 of IAV PR8 or SARS-CoV-2 for 1 h in 200 µL of infection medium per well. Afterwards, the virus inoculum was removed completely, and the cells were washed once with infection medium and then treated with 1 mL per well of different concentrations of zapnometinib in infection medium with 1% dimethyl sulfoxide (DMSO) (Merck Millipore, Burlington, MA, USA) for 24 h at 37°C, 5% CO2. Supernatants were harvested and stored at −80°C for subsequent determination of virus titer and EC50 value. Cell lysates were prepared as described in the “Preparation of cell lysates and WES™ analysis” section for WES™ analysis.
(§3) The viral titers of IAV and SARS-CoV-2 viruses were determined using a real-time one-step multiplex RT-qPCR method. Briefly, viral nucleic acid extraction was performed using a QIAamp Viral RNA Mini Kit (Qiagen, Venlo, Netherlands) according to the manufacturer’s instructions. A TaqMan-based RT-qPCR assay was carried out using a QuantiNova Pathogen kit (Qiagen, Venlo, Netherlands) with specific primers targeting the SARS-CoV-2 N gene (2019-CoV2-N1F: […], 2019-CoV2-N1R: […], 2019-CoV2-N1P [6FAM]: […] [BHQ1]) and M gene for IAV according to the WHO guidelines. The viral genome copies per mL (gc/mL) were determined based on a standard curve prepared with 10-fold serial dilutions of the target gene. For quality control, nuclease-free water was included in each set of extractions as a negative control to monitor any possible cross-contamination. Moreover, an artificial exogenous QuantiNova RNA internal control (Qiagen, Venlo, Netherlands) was included during the nucleic acid purification to monitor the RNA purification efficiency and the RT-PCR amplification. A Rotor-Gene Q™ Real-Time PCR detection system (Qiagen, Venlo, Netherlands) was used for amplification, and the data were analyzed using Q-Rex software (Qiagen, Venlo, Netherlands).
(§4) For EC50 determination, a virus yield reduction assay was performed. The virus titer in the cell culture supernatant was determined and normalized to the solvent control. The EC50 value was determined using the “log(inhibitor) vs. normalized response - Variable slope” equation in GraphPad Prism version 9.4.0.

SARS-CoV-2 N = format: cell-based; conditions: MOI 0.01, 24 h; for reduction of SARS-CoV-2 N (N/ERK2 normalized to solvent control): both cell lines
IAV PR8 = experiment: Virus yield reduction assay, IAV PR8 (virus titer by RT-qPCR); format: cell-based, Influenza A virus, strain: A/Puerto Rico/8/1934 (H1N1); conditions: 0.2% BSA; for reduction of the virus titer: Calu-3 and Caco-2 cells, 24 h
Procedure: as §2, §3, §4

O=C(O)c1ccc(F)c(F)c1Nc1ccc(I)cc1Cl [zapnometinib, 2-(2-chloro-4-iodophenylamino)-N-3,4-difluoro benzoic acid]
CC50 (Caco-2 cells): 360 µM
CC50 (Calu-3 cells): 303 µM
pEC50 [1]: 4.50
pEC50 (IAV RB1): 5.20
pEC50 (IBV Lee): 5.38
reduction of virus titer compared to solvent control (SARS-CoV-2; 6.25 µM, Caco-2 cells): No significant reduction
reduction of virus titer compared to solvent control (SARS-CoV-2; 12.5 µM, Caco-2 cells): No significant reduction
reduction of virus titer compared to solvent control (SARS-CoV-2; 25 µM, Caco-2 cells): > 39%
reduction of the virus titer (SARS-CoV-2; 25 µM, 0.2% BSA): ≥ 50%
reduction of virus titer compared to solvent control (SARS-CoV-2; 50 µM, Caco-2 cells): > 60%
reduction of the virus titer (SARS-CoV-2; 50 µM, 0.2% BSA): ≥ 50%
reduction of virus titer compared to solvent control (SARS-CoV-2; 75 µM, Caco-2 cells): > 94%
reduction of the virus titer (SARS-CoV-2; 75 µM, 0.2% BSA): > 90%
reduction of virus titer compared to solvent control (SARS-CoV-2; 100 µM, Caco-2 cells): > 99%
reduction of the virus titer (SARS-CoV-2; 100 µM, 0.2% BSA): > 90%
pEC50 (SARS-CoV-2; Caco-2 cells, 0.2% BSA, MOI 0.01, 24 h, read-out: EC50 value against SARS-CoV-2 (FI)): 4.64
pEC50 (SARS-CoV-2; Severe acute respiratory syndrome coronavirus 2, Caco-2, 24 h, Caco-2 cells, 0.2% BSA, MOI 0.01, 24 h, read-out: EC50 value against SARS-CoV-2 (FI)): 4.64
pEC50 (SARS-CoV-2; Severe acute respiratory syndrome coronavirus 2, Caco-2, Caco-2 cells, medium containing 5% FBS, MOI 0.01, treatment 1 h post-infection, titer after 24 h, read-out: EC50 value against SARS-CoV-2): 4.47
pEC50 (SARS-CoV-2; Severe acute respiratory syndrome coronavirus 2, Calu-3, 24 h, Calu-3 cells, 0.2% BSA, MOI 0.01, 24 h, read-out: EC50 value against SARS-CoV-2 (FI)): 4.71
pEC50 (SARS-CoV-2; Severe acute respiratory syndrome coronavirus 2, summary for Calu-3 and Caco-2 cells, 0.2% BSA, read-out: EC50 values for SARS-CoV-2 in both cell lines): ~4.70
reduction of SARS-CoV-2 N (N/ERK2 normalized to solvent control) (SARS-CoV-2 N; 12.5 µM): approximately 50%
reduction of SARS-CoV-2 N (N/ERK2 normalized to solvent control) (SARS-CoV-2 N; 50 µM): > 70%
reduction of SARS-CoV-2 N (N/ERK2 normalized to solvent control) (SARS-CoV-2 N; 100 µM): > 80%
lowest concentration at which SARS-CoV-2 N was significantly reduced compared to solvent control (SARS-CoV-2 N): 12.5 µM
reduction of the virus titer (IAV PR8; 12.5 µM): ≥ 50%
reduction of the virus titer (IAV PR8; 25 µM): ≥ 50%
reduction of the virus titer (IAV PR8; 100 µM): > 90%
pEC50 (IAV PR8; Caco-2 cells, MOI 0.01, 24 h, read-out: EC50 value against IAV PR8): 5.24
pEC50 (IAV PR8; Calu-3 cells, MOI 0.01, 24 h, read-out: EC50 value against IAV PR8): 5.15
pEC50 (IAV PR8; Influenza A virus, PR8, Caco-2, 24 h, Caco-2 cells, MOI 0.01, 24 h, read-out: EC50 value against IAV PR8): 5.24
pEC50 (IAV PR8; Influenza A virus, PR8, Calu-3, 24 h, Calu-3 cells, MOI 0.01, 24 h, read-out: EC50 value against IAV PR8): 5.15
pEC50 (IAV PR8; Influenza A virus, PR8, summary for Calu-3 and Caco-2 cells, read-out: EC50 values for IAV PR8 in both cell lines): > 5.00
